# Values quoted from earlier work, collected in paper PMC5950987 (Journal of Diabetes Science and Technology, 2017).
# Details: administered by needle and syringe
substance,measurement,value
regular human insulin,Intraindividual variability of the metabolic effect,10-30%
